Laboratory results taken from the supplement of paper PMC10307832.

What was measured:
Test in all cases: relative viability (nuclei count vs DMSO), 5 days (fraction); higher = more cells survive
201T = test system: 201T
Procedure, shortened: (§1)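 Relative viability was taken as the ratio of nuclei in treated wells to nuclei in vehicle wells. Lung cancer cell lines in 1536-well plates received compounds by pin tool one day after seeding, either one drug alone or a fixed anchor-drug dose plus five library-drug doses (not always all listed) in √10 steps. Nuclei were counted on 4× images after 5 days of treatment, and values are medians of duplicate plates.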

ChaGo-K-1 = test system: ChaGo-K-1
Procedure, shortened: as §1

HCC-78 = test system: HCC-78
Procedure, shortened: as §1

HCC-827 = test system: HCC-827
Procedure, shortened: as §1

LCLC-103H = test system: LCLC-103H
Procedure, shortened: as §1

LCLC-97TM1 = test system: LCLC-97TM1
Procedure, shortened: as §1

LOU-NH91 = test system: LOU-NH91
Procedure, shortened: as §1

NCI-H1437 = test system: NCI-H1437
Procedure, shortened: as §1

NCI-H1755 = test system: NCI-H1755
Procedure, shortened: as §1

NCI-H1792 = test system: NCI-H1792
Procedure, shortened: as §1

NCI-H2023 = test system: NCI-H2023
Procedure, shortened: as §1

NCI-H2085 = test system: NCI-H2085
Procedure, shortened: as §1

NCI-H2126 = test system: NCI-H2126
Procedure, shortened: as §1

NCI-H2405 = test system: NCI-H2405
Procedure, shortened: as §1

NCI-H441 = test system: NCI-H441
Procedure, shortened: as §1

NCI-H596 = test system: NCI-H596
Procedure, shortened: as §1

NCI-H650 = test system: NCI-H650
Procedure, shortened: as §1

NCI-H727 = test system: NCI-H727
Procedure, shortened: as §1

RERF-LC-KJ = test system: RERF-LC-KJ
Procedure, shortened: as §1

Compound: COCC1(CO)C(=O)C2CCN1CC2 (stereo not drawn) [PRIMA-1MET] + CC(C)C[C@H](NC(=O)[C@H](Cc1ccccc1)NC(=O)c1cnccn1)B(O)O [Bortezomib] (partner 0.002 µM)
- relative viability (201T; first compound 0.2 µM): 1.18
- relative viability (201T; first compound 0.6325 µM): 1.07
- relative viability (201T; first compound 2 µM): 1.07
- relative viability (201T; first compound 6.325 µM): 1.15
- relative viability (201T; first compound 20 µM): 1.08
- relative viability (ChaGo-K-1; first compound 0.2 µM): 1.21
- relative viability (ChaGo-K-1; first compound 0.6325 µM): 0.83
- relative viability (ChaGo-K-1; first compound 2 µM): 1.28
- relative viability (ChaGo-K-1; first compound 6.325 µM): 0.988
- relative viability (ChaGo-K-1; first compound 20 µM): 0.32
- relative viability (HCC-78; first compound 0.2 µM): 0.694
- relative viability (HCC-78; first compound 0.6325 µM): 0.521
- relative viability (HCC-78; first compound 2 µM): 0.452
- relative viability (HCC-78; first compound 6.325 µM): 0.485
- relative viability (HCC-78; first compound 20 µM): 0.0823
- relative viability (HCC-827; first compound 0.2 µM): 1.13
- relative viability (HCC-827; first compound 0.6325 µM): 1.01
- relative viability (HCC-827; first compound 2 µM): 0.971
- relative viability (HCC-827; first compound 6.325 µM): 1.1
- relative viability (HCC-827; first compound 20 µM): 0.956
- relative viability (LCLC-103H; first compound 0.2 µM): 1.35
- relative viability (LCLC-103H; first compound 0.6325 µM): 1.03
- relative viability (LCLC-103H; first compound 2 µM): 1.04
- relative viability (LCLC-103H; first compound 6.325 µM): 0.934
- relative viability (LCLC-103H; first compound 20 µM): 1
- relative viability (LCLC-97TM1; first compound 0.2 µM): 0.526
- relative viability (LCLC-97TM1; first compound 0.6325 µM): 0.428
- relative viability (LCLC-97TM1; first compound 2 µM): 0.533
- relative viability (LCLC-97TM1; first compound 6.325 µM): 0.47
- relative viability (LCLC-97TM1; first compound 20 µM): 0.0592
- relative viability (LOU-NH91; first compound 0.2 µM): 0.452
- relative viability (LOU-NH91; first compound 0.6325 µM): 0.403
- relative viability (LOU-NH91; first compound 2 µM): 0.541
- relative viability (LOU-NH91; first compound 6.325 µM): 0.423
- relative viability (LOU-NH91; first compound 20 µM): 0.485
- relative viability (NCI-H1437; first compound 0.2 µM): 0.573
- relative viability (NCI-H1437; first compound 0.6325 µM): 0.403
- relative viability (NCI-H1437; first compound 2 µM): 0.538
- relative viability (NCI-H1437; first compound 6.325 µM): 0.594
- relative viability (NCI-H1437; first compound 20 µM): 0.432
- relative viability (NCI-H1755; first compound 0.2 µM): 1.11
- relative viability (NCI-H1755; first compound 0.6325 µM): 0.892
- relative viability (NCI-H1755; first compound 2 µM): 0.877
- relative viability (NCI-H1755; first compound 6.325 µM): 0.974
- relative viability (NCI-H1755; first compound 20 µM): 0.975
- relative viability (NCI-H1792; first compound 0.2 µM): 0.959
- relative viability (NCI-H1792; first compound 0.6325 µM): 0.851
- relative viability (NCI-H1792; first compound 2 µM): 0.937
- relative viability (NCI-H1792; first compound 6.325 µM): 1
- relative viability (NCI-H1792; first compound 20 µM): 0.939
- relative viability (NCI-H2023; first compound 0.2 µM): 1.17
- relative viability (NCI-H2023; first compound 0.6325 µM): 0.877
- relative viability (NCI-H2023; first compound 2 µM): 0.893
- relative viability (NCI-H2023; first compound 6.325 µM): 0.951
- relative viability (NCI-H2023; first compound 20 µM): 1.02
- relative viability (NCI-H2085; first compound 0.2 µM): 1.08
- relative viability (NCI-H2085; first compound 0.6325 µM): 0.978
- relative viability (NCI-H2085; first compound 2 µM): 0.856
- relative viability (NCI-H2085; first compound 6.325 µM): 0.609
- relative viability (NCI-H2085; first compound 20 µM): 0.392
- relative viability (NCI-H2126; first compound 0.2 µM): 1.21
- relative viability (NCI-H2126; first compound 0.6325 µM): 1.13
- relative viability (NCI-H2126; first compound 2 µM): 1.06
- relative viability (NCI-H2126; first compound 6.325 µM): 1.16
- relative viability (NCI-H2126; first compound 20 µM): 1.1
- relative viability (NCI-H2405; first compound 0.2 µM): 0.716
- relative viability (NCI-H2405; first compound 0.6325 µM): 0.786
- relative viability (NCI-H2405; first compound 6.325 µM): 0.92
- relative viability (NCI-H2405; first compound 20 µM): 0.952
- relative viability (NCI-H441; first compound 0.2 µM): 0.387
- relative viability (NCI-H441; first compound 0.6325 µM): 0.407
- relative viability (NCI-H441; first compound 2 µM): 0.347
- relative viability (NCI-H441; first compound 6.325 µM): 0.404
- relative viability (NCI-H441; first compound 20 µM): 0.107
- relative viability (NCI-H596; first compound 0.2 µM): 1.11
- relative viability (NCI-H596; first compound 0.6325 µM): 0.93
- relative viability (NCI-H596; first compound 2 µM): 0.803
- relative viability (NCI-H596; first compound 6.325 µM): 1.25
- relative viability (NCI-H596; first compound 20 µM): 0.195
- relative viability (NCI-H650; first compound 0.2 µM): 1.11
- relative viability (NCI-H650; first compound 2 µM): 0.816
- relative viability (NCI-H650; first compound 6.325 µM): 0.508
- relative viability (NCI-H650; first compound 20 µM): 0.117
- relative viability (NCI-H727; first compound 0.2 µM): 0.573
- relative viability (NCI-H727; first compound 0.6325 µM): 0.829
- relative viability (NCI-H727; first compound 2 µM): 0.618
- relative viability (NCI-H727; first compound 6.325 µM): 0.573
- relative viability (NCI-H727; first compound 20 µM): 0.0549
- relative viability (RERF-LC-KJ; first compound 0.2 µM): 1.35
- relative viability (RERF-LC-KJ; first compound 0.6325 µM): 1.04
- relative viability (RERF-LC-KJ; first compound 2 µM): 1.13
- relative viability (RERF-LC-KJ; first compound 6.325 µM): 1.15
- relative viability (RERF-LC-KJ; first compound 20 µM): 1.04
